Data taken from ChEMBL document CHEMBL1135042, “Structure-activity relationships for analogues of the phenazine-based dual topoisomerase I/II inhibitor XR11576” (Bioorg Med Chem Lett, 2002).

Assays:
NCI-H69 [1] = assay: In vitro cytotoxicity against human small cell lung carcinoma H69/P.; format: functional, cell-based
NCI-H69 [2] = assay: In vitro cytotoxicity against multi-drug resistant human small cell lung carcinoma H69/LX4.; format: functional, cell-based
[3] = Ratio of IC50 values against H69/P and […] cell lines.; format: functional

## CC/N=C(\S)Oc1ccc2c(c1)cc(C(=O)NCCN(C)C)c1nc3ccccc3nc12
NCI-H69 [1]
  IC50: 519 nM
NCI-H69 [2]
  IC50: 583 nM
[3]
  Ratio: 1.12

## CN(C)CCNC(=O)c1cccc2ncc(-c3ccc([N+](=O)[O-])cc3)nc12
NCI-H69 [1]
  IC50: 2400 nM
NCI-H69 [2]
  IC50: 3380 nM
[3]
  Ratio: 1.41

## C#CCOc1ccc2c(c1)cc(C(=O)NCCN(C)C)c1nc3ccccc3nc12
NCI-H69 [1]
  IC50: 435 nM
NCI-H69 [2]
  IC50: 613 nM
[3]
  Ratio: 1.4

## CN(C)CCNC(=O)c1cc2ccccc2c2nc3ccccc3nc12
NCI-H69 [1]
  IC50: 406 nM
NCI-H69 [2]
  IC50: 511 nM
[3]
  Ratio: 1.26

## CN(C)CCNC(=O)c1cccc2nc(-c3ccccc3)c(-c3ccccc3)nc12
NCI-H69 [1]
  IC50: > 100000 nM
NCI-H69 [2]
  IC50: > 100000 nM

## CN(C)CCNC(=O)c1cccc2ncc(-c3ccccc3)nc12
NCI-H69 [1]
  IC50: 3930 nM
NCI-H69 [2]
  IC50: 3590 nM
[3]
  Ratio: 0.9

## Cc1cccc2nc3c(nc12)c(C(=O)NCCN(C)C)cc1ccccc13
NCI-H69 [1]
  IC50: 417 nM
NCI-H69 [2]
  IC50: 320 nM
[3]
  Ratio: 0.8

## CN(C)CCNC(=O)c1cccc2nc3c(nc12)-c1cccc2cccc-3c12
NCI-H69 [1]
  IC50: 350 nM
NCI-H69 [2]
  IC50: 330 nM
[3]
  Ratio: 0.93

## CN(C)CCNC(=O)c1cc2cc(OC(=O)Nc3ccccc3)ccc2c2nc3ccccc3nc12
NCI-H69 [1]
  IC50: 104 nM
NCI-H69 [2]
  IC50: 252 nM
[3]
  Ratio: 2.42

## CN(C)CCNC(=O)c1cc2cc(OCCCO)ccc2c2nc3ccccc3nc12
NCI-H69 [1]
  IC50: 523 nM
NCI-H69 [2]
  IC50: 2030 nM
[3]
  Ratio: 3.87

## COc1ccc2c(c1)cc(C(=O)NCCN(C)C)c1nc3ccccc3nc12
NCI-H69 [1]
  IC50: 282 nM
NCI-H69 [2]
  IC50: 358 nM
[3]
  Ratio: 1.3

## CN(C)CCNC(=O)c1cc2cc(OCc3ccccc3)ccc2c2nc3ccccc3nc12
NCI-H69 [1]
  IC50: 1220 nM
NCI-H69 [2]
  IC50: 1580 nM
[3]
  Ratio: 1.29

## COCCOc1ccc2c(c1)cc(C(=O)NCCN(C)C)c1nc3ccccc3nc12
NCI-H69 [1]
  IC50: 445 nM
NCI-H69 [2]
  IC50: 545 nM
[3]
  Ratio: 1.23

## CN(C)CCNC(=O)c1cc2cccc([N+](=O)[O-])c2c2nc3ccccc3nc12
NCI-H69 [1]
  IC50: 458 nM
NCI-H69 [2]
  IC50: 584 nM
[3]
  Ratio: 1.3

## CN(C)CCNC(=O)c1cc2cccc(N)c2c2nc3ccccc3nc12
NCI-H69 [1]
  IC50: 259 nM
NCI-H69 [2]
  IC50: 345 nM
[3]
  Ratio: 1.33

## CN(C)CCNC(=O)c1cc2cc(OCCN3CCOCC3)ccc2c2nc3ccccc3nc12
NCI-H69 [1]
  IC50: 506 nM
NCI-H69 [2]
  IC50: 592 nM
[3]
  Ratio: 1.17

## CN(C)CCNC(=O)c1cc2cc(O)ccc2c2nc3ccccc3nc12
NCI-H69 [1]
  IC50: 94 nM
NCI-H69 [2]
  IC50: 198 nM
[3]
  Ratio: 2.12

## COc1cccc2c1ccc1nc3cccc(C(=O)N[C@@H](C)CN(C)C)c3nc12
NCI-H69 [1]
  IC50: 20 nM
NCI-H69 [2]
  IC50: 20 nM

## CN(C)CCNC(=O)c1cccc2ncc(-c3ccc4ccccc4c3)nc12
NCI-H69 [1]
  IC50: 1820 nM
NCI-H69 [2]
  IC50: 1670 nM
[3]
  Ratio: 0.92
